The values below come from publication PMC11783601, “Analogue-Sensitive Inhibition of Histone Demethylases Uncovers Member-Specific Function in Ribosomal Protein Synthesis” (Journal of the American Chemical Society, 2025).

For the test, the system named is nascent protein synthesis in HEK293T cells. Kind of test: BONCAT: confocal imaging of TAMRA alkyne ligated nascent proteins in fixed cells. Format: cell-based, human. As to the method: To visualize the nascent proteins in intact cells, we performed click ligation on fixed cells with TAMRA alkyne, followed by confocal imaging. Treatment with AHA led to a robust fluorescence signal primarily in the cytoplasm compared to untreated cells indicating cytoplasmic protein synthesis (Figure 5D,E). […]
and 6 ug of Thermo Turbofect (FERR0531). KDM4A siRNA was transfected into cells using 10nM siRNA (Thermo 4392420) with 1:2 ug amount of Thermo Turbofect (FERR0531). Cells were washed 4 hours later and fresh DMEM was applied. The next day, the cells were treated with inhibitor (L-leucine NOG) and grown for 24 hours. […] The lysate was quantified with Bradford dye and 40 ug of lysate was incubated with 1 mM Tris[(1-benzyl-1H-1,2,3-triazol-4-yl)methyl]amine (TBTA […]
For analysis of AHA incorporation measured by fixed cell imaging, HEK293-T cells (ATCC CRL-1573) were grown in a 24 well plate (Corning) on poly-D-lysine (Gibco A3890401) treated glass coverslips (ThermoScientific 12-545-81P) overnight and transfected the next day with 500 ng KDM4A WT/F185A or Empty Vector (EV) equivalent using 1:2 ug of Thermo Turbofect (FERR0531). […]
(Sigma B2883-25MG) for 30 seconds, washed with PBS and finally adhered to a slide with gelvatol. […] Images were analyzed on ImageJ open-source software and NIS elements software. […]

With `CCCCCCCCOC(=O)C(=O)NC(CC(C)C)C(=O)O` [6A, L-Leu octyl-ester NOG], the “TAMRA signal of nascent proteins (confocal imaging)” value (fixed HEK293T cells overexpressing F185A, to the level of cells expressing control vector) is on record as “subsequently inhibited”.

On to `CCCCCCCCOC(=O)c1ccc(O)c2ncccc12` [n-octyl IOX1], for which the “TAMRA signal of nascent proteins (confocal imaging)” value (fixed HEK293T cells, endogenous KDM4A, compared with KDM4A silencing) is “phenocopied”.
